Experimental data from patent US5334707A, “Use of acyl phosphate esters in the modification of hemoglobin” (priority 1992, dated 1994).
“Also recorded” adds a separate entry of the source.

How the values were obtained:
[1] = test system: human hemoglobin; test: Inter-subunit cross-linking of hemoglobin by SDS-polyacrylamide gel electrophoresis; type: biochemical; details: 0.3 mM hemoglobin, pH 7.4, 37° C., four hours
Method: Solutions (2 mL) of 4,4'stilbene dicarboxylic acid bis(methyl phosphate) at concentrations of 0.3 mM, 3.0 mM, 30 mM, and 300 mM were prepared in 0.100M tris-HCL buffer pH 7.4. A control solution containing only the buffer was prepared. To each of these freshly prepared solutions, 40 mg of human hemoglobin (Sigma Chemical Company) was added so that the resulting solution was 0.3 mM in hemoglobin. The reaction mixtures were than stirred vigorously and incubated at 37° C. After four hours the solutions were dialyzed against 0.100M sodium phosphate buffer, pH 7.0, for 20 hours at 4° C. to remove the unreacted acyl phosphates. The samples were then lyophilized and analyzed by SDS-polyacrylamide gel electrophoresis to assess the extent of intersubunit cross-linking (Weber, K; Osborn, M.; J. Biol. Chem. 1969, 244, 4406). Prior to electrophoresis, the hemoglobin samples, cross-linked bovine hemoglobin standard (Sigma Dalton Mark VII-L doubly crystallized, dialyzed, lyophilized), and molecular weight standards were denatured by boiling for 15 min. in 0.11M sodium phosphate buffer, pH 7.0, which contained 1% sodium dodecyl sulfate, 1% 2-mercaptoethanol, 36% urea, and 0.015% bromphenol blue. The final protein concentrations were 2 mg/mL and 10 to 20 μL aliquots were loaded on the gel. The process was conducted using a Bio-Rad Mini-Protean II dual slab cell apparatus. The extent of cross-linking of the hemoglobin could be estimated by visual comparison of the resolved electrophoretic bands after fixation followed by staining with Coomassie Brilliant Blue R.
The above procedure was repeated with solutions of fumaryl bis(methyl phosphate) at concentrations of 0.3 mM, 3.0 mM and 30 mM; 3,3'stilbene dicarboxylic acid bis(methyl phosphate) at a concentration of 30 mM and methyl acetyl phosphate at a concentration of 0.6M.

[2] = Solution stability (hydrolysis followed by 31P NMR) of bis(methyl acyl phosphates) in tris-HCl buffer; type: physicochemical; details: 0.100M tris-HCl buffer, pH 7.4, 37° C.; for half-life: 0.1 m tris-hcl buffer, 31P NMR
Method: The solution stability of the bis(methyl acyl phosphates) was examined. The hydrolysis of fumaryl bis(sodium methyl phosphate), stilbene 3,3'dicarboxylic acid bis(sodium methyl phosphate) and stilbene 4,4'dicarboxylic acid bis(sodium methyl phosphate) in 0.100M tris-HCL buffer, pH 7.4, 37° C., were followed by integrating signals for the reactant and the phosphorus-containing product, methyl phosphate, in the ^31 P NMR spectrum. Production of methyl phosphate was observed as an indication of hydrolysis or of acylation of the buffer. […] The half life of the 3,3'stilbene derivative, was 100 hours. […] This is in agreement with earlier reports of the reactivity of acyl phosphate esters (Disabato, G.; Jencks, W. P., J. Am. Chem. Soc. 1961, 83, 4393, 4400).

[3] = molecular target: carbonmonoxyhemoglobin (COHb) (Homo sapiens, UniProt P68871+P69905); test: Reaction of FMP with carbonmonoxyhemoglobin, conversion by anion exchange chromatography; type: biochemical
Chain of carbonmonoxyhemoglobin (COHb) (P69905 2-142 limits assumed): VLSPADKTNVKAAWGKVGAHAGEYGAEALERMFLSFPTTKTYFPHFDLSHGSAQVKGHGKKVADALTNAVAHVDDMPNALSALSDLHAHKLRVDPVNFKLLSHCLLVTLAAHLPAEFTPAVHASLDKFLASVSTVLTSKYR
Chain of carbonmonoxyhemoglobin (COHb) (P68871 2-147 limits assumed): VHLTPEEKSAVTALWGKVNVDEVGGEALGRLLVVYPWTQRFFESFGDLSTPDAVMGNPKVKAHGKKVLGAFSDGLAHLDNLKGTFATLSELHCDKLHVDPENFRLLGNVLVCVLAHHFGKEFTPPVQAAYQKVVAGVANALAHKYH
Method: The effect of pH, type of buffer, and ligand state of the cross-linked hemoglobin was examined for the reaction of fumaryl bis(methyl phosphate) (FMP) with hemoglobin.
ethanesulphonic acid]at pH 7.5, 35°, for 2 hours. Over the range of pH from 6.8 to 7.5, the greatest reaction between COHb and FMP was obtained at the pH of 7.2 in bisTris. The reaction at pH 7.2, . […] A second peak of reacted material observed by anion exchange chromatography increased over 3 hours from 14% at 10 minutes to about 30% by 3 hours.

[4] = test system: human hemoglobin; test: Cross-linking site of the reaction with hemoglobin; type: biochemical
Source text: Structural characterization of the major and some minor modified hemoglobins that result form reacting deoxyHb and COHb with FMP were made by isolating single hemoglobin components wherever possible. The initial separation was made on a preparative size Synchropak AX300 anion exchange column. Further purification was obtained by rechromatography of anion exchange zones containing mixtures of hemoglobins on a preparative size Synchropak CM300 cation exchange column. Zones from cation exchange rechromatography were then subjected to globin chain separation using Vydak C-4 large pore reverse phase columns. In some cases, this was sufficient for identification of the unmodified globin chains. In most cases the globin chain was isolated, treated by oxidations or aminoethylation to stabilize the zysteinyl residues, hydrolyzed with trypsin and glu-C proteonase and the resultant peptides were separated and analyzed for amino acid composition. Table II lists the components isolated and the structural modifications identified for the FMP treated hemoglobin.
The number, chromatographic elution positions, and amounts of products of hemoglobin reacted with FMP varies with the ligand state of the hemoglobin and with the presence or absence of 2,3-DPG (2,3, diphosphoglycerate). FIG. 1 is an artion exchange HPLC chromatogram of the reaction mixture after treatment of deoxyhemoglobin with FMP. […]

## COP(=O)(O)OC(=O)c1cccc(/C=C/c2cccc(C(=O)OP(=O)(O)OC)c2)c1 [Stilbene 3,3'-dicarboxylic acid bis(sodiummethyl phosphate)]
[1]
  species produced by reaction with hemoglobin (SDS gel electrophoresis): dimeric and tetrameric species
[2]
  half-life: 100 h

## COP(=O)(O)OC(=O)c1ccc(/C=C/c2ccc(C(=O)OP(=O)(O)OC)cc2)cc1 [Stilbene 4,4'-dicarboxylic acid bis(sodiummethyl phosphate)]
[1]
  species produced by reaction with hemoglobin (SDS gel electrophoresis): dimeric and tetrameric species
[2]; followed for nine hours
  change observed in the 31P NMR spectrum: no change observed in the spectrum

## COP(=O)(O)OC(=O)/C=C/C(=O)OP(=O)(O)OC [fumaryl bis(methyl phosphate), Fumaryl bis(sodium methyl phosphate)]
[3]; 1 mM COHb, 2 mM FMP, pH 7.2, 35°, 2 hours
  conversion of the hemoglobin to fumaryl derivatives: about 75%
[3]; 1 mM COHb, 2 mM FMP, pH 7.2, 35°, at 10 minutes
  second peak of reacted material: 14%
[3]; 1 mM COHb, 2 mM FMP, pH 7.2, 35°, by 10 minutes
  major modified component, percent of total hemoglobin: approximately 35%
[3]; 1 mM COHb, 2 mM FMP, pH 7.2, 35°, by 3 hours
  second peak of reacted material: about 30%
[3]; COHb, bisTris compared to HEPES, pH 7.5, 35°, 2 hours
  effect of buffer on amounts or varieties of reaction products: No significant differences
[3]; pH range 6.8 to 7.5, bisTris
  pH of greatest reaction between COHb and FMP: 7.2
[1]
  species produced by reaction with hemoglobin (SDS gel electrophoresis): dimeric and tetrameric species
[2]
  half-life: 36 h
[4]; absence of 2,3-diphosphoglycerate
  cross-links formed in hemoglobin: cross-linked between β subunits (val-1 to lys-82) and between the same residues in a single β subunit as well as a cross-link between α subunits between lys-99 in each subunit; also recorded: cross-linked between β subunits (val-1 to lys-82) and between the same residues in a single β subunit as well as crosslinked between α subunits between lys-99 in each subunit
[4]; human hemoglobin
  cross-linking site of reaction: the highly cationic site which binds 2,3-diphosphoglycerate

## O=C(O)c1cccc(C=Cc2cccc(C(=O)O)c2)c1 [stilbene 3,3'-dicarboxylic acid, Stilbene 3,3'-dicarboxylic acid, reference compound]
[1]
  species produced by reaction with hemoglobin (SDS gel electrophoresis): monomeric
